Ends that are not written are not given here.

In series [1] the test system is bEnd-3 cells co-cultured with astrocytic CTX-TNA2 cells.
Protocol: (§1) These cells are plated at various densities ranging from 10.000 to 50.000 cells per well in two-compartment cell chambers (Greiner Bio-one). The lower compartment of the chamber is a well that is part of 12-well culture plate. The upper chamber is equipped with a permeable filter (mean pore diameter of 0.4 μm) onto which the cells are seeded. The cells are cultured in DMEM/F12 10% fetal calf serum.
(§2) At confluency, the cells formed a uniform monolayer with a transendothelial resistance of 150-200 Ω·cm^2 (measured with the EVOM apparatus, WPI). The transendothelial resistance reflects the presence of tight junctions overall the culture. These tight junctions efficiently prevent the paracellular passage of molecules. It is considered that the endothelium is tight when this value is >100 Ω·cm^2. Therefore, all experiments are performed with functional endothelial barriers. […]
(§3) The passage of the peptide through the endothelial barrier is thus followed in real-time. The concentration of the chimeric peptide is determined by spectrophotometry. […]
For series [2], the system named is bEnd-3 cells co-cultured with glial C6 cells.
Protocol: as §1, §2, §3
For another series, the system named is SH-SY5Y cells. Briefly: Calcium measurements, amyloid pore formation induced by Aβ1-42. It is filed as cell-based, human. The procedure: A. In a first experiment, SH-SY5Y cells were treated with Aβ1-42peptide (220 nM), and Ca^2+ dependent fluorescence was analyzed (top curve). In a second series of experiments, Aβ1-42 and the chimeric α-syn34-45/HH peptide (both 220 nM) were mixed extemporaneously directly injected onto the cells (C1 and C2 curves corresponding to two separate experiments). The C3 curve corresponds to the calcium response induced by the chimeric peptide alone. Results are expressed as mean±SD (n=100). In panel B, the same colors were used but the chimeric peptide was replaced by the wild-type α-syn34-45 peptide.
A. SH-SY5Y cells were treated with Aβ1-42 peptide (220 nM), and Ca^2+ dependent fluorescence was analyze. […] In absence of the chimeric peptide (− Pep Chim), amyloid pore formation induced by the Aβ1-42 peptide was evidenced by an increase of Ca^2+ fluorescence inside the cells. […] Warmer colors correspond to higher fluorescence (left scale).
Cells were plated in 35 mm culture dishes, grown during 72 h and loaded with 5 μM Fluo-4 AM (Invitrogen-Life Technologies, Saint Aubin, France) for 30 min in the dark, washed three times with HBSS (Gibco-Life Technologies, Saint-Aubin, France), and incubated for 20 min at 37° C. […] Fluorescence emission at 525 nm was imaged by a digital camera CDD (ORCA-ER Hamanatsu, Japan) after fluorescence excitation at 490 nm. […]

Series [3] is described as follows: Lipid monolayer assay, GM4 monolayer. The class given is binding. Particulars: peptide 10 μM in aqueous subphase.
Series [4] in a line: Lipid monolayer assay (Langmuir film balance), GM1 monolayer. It is filed as binding. Particulars: for interaction with GM1 monolayer (surface pressure increase): peptide 10 μM in subphase. The procedure: Peptide-cholesterol interactions were studied with the Langmuir film balance technique using a Kibron microtensiometer as previously described (Fantini and Yahi, 2011a).
In this experiment, a monolayer of ganglioside GM1 was prepared at the air-water interface and the peptide was injected in the aqueous subphase. The interaction of the peptide with the ganglioside was evidenced by an increase in the surface pressure of the monolayer, which was followed in real-time with a platinum probe (see Thakur et al, 2009 for a full description of the technique and its application to amyloid proteins). […] Then single mutants were assayed to identify which of the two His is actually critical for GM1 recognition. […] In this model, His-13 interacted with one GM1, and His-14 with the second one. Clearly, the cooperation between both GM1 molecules allowed an optimal interaction with the Aβ5-16 peptide driven by histidine residues. Conversely, because it is devoid of these histidine residues, the glycolipid-binding domain of α-synuclein (α-syn34-45) has a marked preference for ganglioside GM3 instead of GM1.

A short description of series [5]: Lipid monolayer assay, GD1a monolayer. The class given is binding. Particulars: peptide 10 μM in aqueous subphase.
Series [6] is described as follows: Lipid monolayer assay, GT1b monolayer. The class given is binding. Particulars: peptide 10 μM in aqueous subphase.
Series [7] is described as follows: Lipid monolayer assay, GD3 monolayer. It is filed as binding. Particulars: peptide 10 μM in aqueous subphase.
Series [8] in a line: Lipid monolayer assay, GM3 monolayer. The class given is binding.
The mark [9] stands for this setting: ganglioside monolayer, peptide 10 μM in aqueous subphase.
[10] abbreviates: initial surface pressure 17.5 mN·m^−1.

“KEGVLYVGHHTK [α-syn34-45/HH, KEGVLYVGHHTK]”: the “transendothelial resistance after 24 hours of incubation with peptide” value in series [1] is on record as 153 Ω·cm^2; in [2], 152 Ω·cm^2. Moreover, the “effect of peptide alone on Ca^2+ fluxes (intrinsic neurotoxicity)” value in the series with SH-SY5Y cells (peptide alone, SH-SY5Y cells) is “little effect on Ca^2+ fluxes”.
In the case of “KEGVLYVGSKTK (listed as Homo sapiens) [α-syn34-45]”, the “Ganglioside specificity: critical pressure of insertion, GM4” value in series [3] was “+ ((+) means a critical pressure of insertion <25 mN · m^−1)”. Besides, in [4] (setting [9]), the “Ganglioside specificity: critical pressure of insertion, GM1” value was “+ ((+) means a critical pressure of insertion <25 mN · m^−1)”. Besides, the “critical pressure of insertion (πc), GM1 monolayers” value in [4] (monolayers at various initial surface pressures, x-axis intercept (FIG. 2D, 4C)) amounted to 25 mN·m^−1. Also, the “Ganglioside specificity: critical pressure of insertion, GD1a” value in [5] is listed as “+ ((+) means a critical pressure of insertion <25 mN · m^−1)”. Moreover, in series [6], the “Ganglioside specificity: critical pressure of insertion, GT1b” value is listed as “+ ((+) means a critical pressure of insertion <25 mN · m^−1)”. Moreover, in series [7], the “Ganglioside specificity: critical pressure of insertion, GD3” value was “+ ((+) means a critical pressure of insertion <25 mN · m^−1)”. Further, the “effect on elevation of intracellular Ca^2+ levels induced by Aβ1-42” value in the series with SH-SY5Y cells (Aβ1-42 220 nM, peptide 220 nM (equimolar), Fluo-4 AM fluorescence) was “only very little inhibitory activity”. Moreover, the “Ganglioside specificity: critical pressure of insertion, GM3” value in series [8] (setting [9]) is listed as “+++ ((+++) a critical pressure of insertion >25 mN · m^−1)”. Further, the “critical pressure of insertion (πc), GM3 monolayers” value in series [8] (monolayers at various initial surface pressures, x-axis intercept (FIG. 2B)) is given as 37.5 mN·m^−1.
As for “KEHHGVLYVGTK [reversed chimeric peptide]”, the “interaction with GM1 monolayer (surface pressure increase)” value in series [4] (setting [10]) is “recognizes both GM1 and GM3 gangliosides”. For the same sequence, in [8] (peptide in subphase, initial surface pressure 17.5 mN·m^−1), the “interaction with GM3 monolayer (surface pressure increase, kinetics)” value was “recognizes both GM1 and GM3 gangliosides”.
In the case of “RHDSGYEVHHQK (listed as Homo sapiens) [Aβ5-16]”, the “interaction with GM1 monolayer (surface pressure increase)” value in series [4] (setting [10]) is listed as “surface pressure started to increase immediately after the injection”. Moreover, in [4] (peptide 10 μM, initial surface pressure 17.5 mN·m^−1), the “time to maximum surface pressure, GM1 monolayer” value came to 30 min.

For the origin of these results see patent US10087226B2, “Chimeric peptide that interacts with cell membrane gangliosides” (Universite D'Aix-Marseille, priority 2014, dated 2018).
